Read-outs that look alike come from different tables or passages of the source.
Legend:
B16 cells = assay: MTT cytotoxicity assay, B16; format: cell-based, murine; conditions: Mus musculus, 24 h, read-out: IC50, Melanoma, B16
Protocol: (§1) In the first step of the study, we analyzed the cytotoxicity of novel soloxolone derivatives 1–12 in a panel of tumor cells, including human cervical carcinoma HeLa, human duodenal carcinoma HuTu-80 and murine melanoma B16 cells, as well as human non-transformed hFF3 foreskin fibroblasts. The cells were treated with derivatives for 24 h and cell viability was evaluated by 3-(4,5-dimethylthiazol-2-yl)-2,5-diphenyltetrazolium bromide (MTT) assay. SM was used as the reference compound.
(§2) The cells in the exponential growth phase were seeded in quadruplicate in 96-well plates at a density of 1 × 10^4 cells/well for HeLa, U87, U118, KELLY and Neuro2a cells; 1.5 × 10^4 cells/well for HuTu-80 cells; 2 × 10^4 cells/well for B16 cells; and 7 × 10^3 cells/well for hFF3 fibroblasts. Cells were incubated under standard conditions overnight followed by their treatment with the investigated compounds (1–20 µM) for 24 h. Then, 10 µL of MTT solution was added to the cells to a final concentration of 0.5 mg/mL and plates were placed under standard conditions for 3 h followed by an aspiration of MTT-containing medium and a dissolution of formazan crystals with 100 µL of DMSO. The absorbance of each well was read at test and reference wavelengths of 570 and 620 nm, respectively, on a Multiscan RC plate reader (Thermo LabSystems, Helsinki, Finland).

HuTu-80 cells = assay: MTT cytotoxicity assay, HuTu-80; format: cell-based; conditions: Homo sapiens, HuTu80, 24 h, read-out: IC50, Duodenum, HuTu-80
Protocol: as §1, §2

[1] = tested on: hFF3 foreskin fibroblasts; assay: MTT cytotoxicity assay, hFF3 fibroblasts; format: cell-based, human
Protocol: as §1, §2

HeLa cells = assay: MTT cytotoxicity assay, HeLa; format: cell-based; conditions: Homo sapiens, 24 h, read-out: IC50, Cervix, HeLa
Protocol: as §1, §2

KELLY cells = assay: MTT cytotoxicity assay, KELLY; format: cell-based; conditions: Homo sapiens, 24 h, read-out: IC50, Neuroblastoma, KELLY
Protocol: (§3) To evaluate the antitumor activity of the synthesized soloxolone amides in brain tumor cells, the cytotoxicity of compounds 4–12, predicted as BBB-permeable (Figure 3), was further analyzed in human glioblastoma U87 and U118 cells, as well as human neuroblastoma KELLY and murine neuroblastoma Neuro2a cells.
as §2

U87 cells = assay: MTT cytotoxicity assay, U87; format: cell-based; conditions: Homo sapiens, U-87 MG, 24 h, read-out: IC50, Glioblastoma, U87
Protocol: as §3, §2

Neuro2a cells = assay: MTT cytotoxicity assay, Neuro2a; format: cell-based, murine; conditions: Mus musculus, N2a, 24 h, read-out: IC50, Neuroblastoma, Neuro2a
Protocol: as §3, §2

panel of tumor cells = assay: MTT cytotoxicity, values averaged over the cell panel; format: cell-based
Protocol: as §1, §2

U118 cells = assay: MTT cytotoxicity assay, U118; format: cell-based; conditions: Homo sapiens, 24 h, read-out: IC50, Glioblastoma, U118
Protocol: as §3, §2

brain tumor cells = assay: MTT cytotoxicity, values summarised over brain tumor cells; format: cell-based; conditions: U87, U118, KELLY, Neuro2a; MTT 24 h; read-out: IC50 (median), brain tumor cells
Protocol: as §3, §2

[2] = aryl-containing amides versus SM, tumor cells of Table 1, MTT 24 h, read-out: average IC50 against tumor cells
[3] = average over Table 1 cell lines (worded 'in a panel of tumor cells'), MTT 24 h, read-out: average IC50

SMILES	IC50 (B16 cells) [nM]	IC50 (HuTu-80 cells) [nM]	IC50 ([1]; Homo sapiens, HFF-3, 24 h) [nM]	melting point	IC50 (HeLa cells) [nM]	IC50 (KELLY cells) [nM]	IC50 (U87 cells) [nM]	IC50 (Neuro2a cells) [nM]	IC50 (panel of tumor cells; [2]) [nM]	IC50 (U118 cells) [nM]	IC50 (panel of tumor cells; [3]) [nM]	IC50 (panel of tumor cells; conclusions, soloxolone amides versus SM, read-out: average IC50 in a panel of tumor cell lines) [nM]	IC50 (brain tumor cells) [nM]	IC50 ([1]; 24 h) [nM]
CC1(C)C(=O)C(C#N)=C[C@]2(C)C3=CC(=O)[C@@H]4[C@@H]5C[C@@](C)(C(=O)Nc6ccc(Br)cc6)CC[C@]5(C)CC[C@@]4(C)[C@]3(C)CCC12 (stereo partly shown) [compound 8, N-(4′-Bromophenyl)-2-Cyano-3,12-dioxo-18βH-olean-9(11),1(2)-dien-30-amide]	1900 ± 100	1400 ± 100	1800 ± 100	283 °C (dec.)	1500 ± 100	1400 ± 100	1700 ± 100	1600 ± 100	1500 to 1800	2000 ± 100	–	–	–	–
CC1(C)C(=O)C(C#N)=C[C@]2(C)C3=CC(=O)[C@@H]4[C@@H]5C[C@@](C)(C(=O)Nc6cccnc6)CC[C@]5(C)CC[C@@]4(C)[C@]3(C)CCC12 (stereo partly shown) [compound 10, N-(Pyridin-3-yl)-2-Cyano-3,12-dioxo-18βH-olean-9(11),1(2)-dien-30-amide]	1700 ± 100	1500 ± 200	1600 ± 100	250 °C	1800 ± 100	1500 ± 100	2500 ± 200	1400 ± 100	1500 to 1800	2100 ± 200	–	–	–	–
CC(C)(C)c1cc(CCCNC(=O)[C@@]2(C)CC[C@]3(C)CC[C@]4(C)[C@H](C(=O)C=C5[C@@]6(C)C=C(C#N)C(=O)C(C)(C)C6CC[C@]54C)[C@@H]3C2)cc(C(C)(C)C)c1O (stereo partly shown) [compound 11, N-(3′-(3′’,5′’-di-tert-butyl-4′’-hydroxyphenyl)propyl)-2-Cyano-3,12-dioxo-18βH-olean-9(11),1(2)-dien-30-amide]	1400 ± 100	1500 ± 100	1300 ± 200	139 °C (dec.)	2500 ± 100	1800 ± 200	1500 ± 100	1400 ± 100	1500 to 1800	1900 ± 100	–	–	–	–
Cc1ccc(NC(=O)[C@@]2(C)CC[C@]3(C)CC[C@]4(C)[C@H](C(=O)C=C5[C@@]6(C)C=C(C#N)C(=O)C(C)(C)C6CC[C@]54C)[C@@H]3C2)cc1 (stereo partly shown) [compound 9, N-p-Tolyl-2-cyano-3,12-dioxo-18βH-olean-9(11),1(2)-dien-30-amide]	2100 ± 300	1500 ± 100	3600 ± 300	–	1600 ± 100	1400 ± 100	2000 ± 200	1600 ± 100	1500 to 1800	1900 ± 200	–	–	–	–
CN(C)CCNC(=O)[C@@]1(C)CC[C@]2(C)CC[C@]3(C)[C@H](C(=O)C=C4[C@@]5(C)C=C(C#N)C(=O)C(C)(C)C5CC[C@]43C)[C@@H]2C1 (stereo partly shown) [compound 6, N-(2′-(Dimethylamino)ethyl)-2-Cyano-3,12-dioxo-18βH-olean-9(11),1(2)-dien-30-amide]	3300 ± 500	2100 ± 500	4100 ± 300	–	2600 ± 500	1600 ± 100	4600 ± 400	2800 ± 400	–	3800 ± 500	3000	–	–	–
CC1(C)C(=O)C(C#N)=C[C@]2(C)C3=CC(=O)[C@@H]4[C@@H]5C[C@@](C)(C(=O)O)CC[C@]5(C)CC[C@@]4(C)[C@]3(C)CCC12 (stereo partly shown) [compound 1, 2-Cyano-3,12-dioxo-18βH-olean-9(11),1(2)-dien-30-oic acid]	4200 ± 300	2500 ± 300	16000 ± 1900	–	9900 ± 700	–	–	–	–	–	8200	–	–	–
CC1(C)C(=O)C(C#N)=C[C@]2(C)C3=CC(=O)[C@@H]4[C@@H]5C[C@@](C)(C(=O)NCCCO)CC[C@]5(C)CC[C@@]4(C)[C@]3(C)CCC12 (stereo partly shown) [compound 3, N-(3′-Hydroxypropyl)-2-cyano-3,12-dioxo-18βH-olean-9(11),1(2)-dien-30-amide]	1400 ± 100	1700 ± 200	6800 ± 1300	150.8 °C (dec.)	3500 ± 200	–	–	–	–	–	3400	–	–	–
COC(=O)[C@@]1(C)CC[C@]2(C)CC[C@]3(C)[C@H](C(=O)C=C4[C@@]5(C)C=C(C#N)C(=O)C(C)(C)C5CC[C@]43C)[C@@H]2C1 (stereo partly shown) [SM, soloxolone methyl, reference compound]	1600 ± 100	1500 ± 100	4000 ± 400	–	1300 ± 100	1600 ± 100	1800 ± 100	1400 ± 100	1500	1900 ± 100	2100	1600	1400	–
CC1(C)C(=O)C(C#N)=C[C@]2(C)C3=CC(=O)[C@@H]4[C@@H]5C[C@@](C)(C(=O)NCCCCCO)CC[C@]5(C)CC[C@@]4(C)[C@]3(C)CCC12 (stereo partly shown) [compound 4, N-(5′-Hydroxypentyl)-2-cyano-3,12-dioxo-18βH-olean-9(11),1(2)-dien-30-amide]	1500 ± 100	1300 ± 100	3600 ± 300	115.7 °C (dec.)	2300 ± 400	1500 ± 100	2000 ± 100	1900 ± 200	–	3100 ± 500	2200	–	–	–
CC1(C)C(=O)C(C#N)=C[C@]2(C)C3=CC(=O)[C@@H]4[C@@H]5C[C@@](C)(C(=O)NCCO)CC[C@]5(C)CC[C@@]4(C)[C@]3(C)CCC12 (stereo partly shown) [compound 2, N-(2′-Hydroxyethyl)-2-cyano-3,12-dioxo-18βH-olean-9(11),1(2)-dien-30-amide]	3300 ± 200	1400 ± 100	1200 ± 100	152.7 °C (dec.)	1500 ± 100	–	–	–	–	–	1900	–	–	–
COCCNC(=O)[C@@]1(C)CC[C@]2(C)CC[C@]3(C)[C@H](C(=O)C=C4[C@@]5(C)C=C(C#N)C(=O)C(C)(C)C5CC[C@]43C)[C@@H]2C1 (stereo partly shown) [compound 5, N-(2′-Methoxyethyl)-2-cyano-3,12-dioxo-18βH-olean-9(11),1(2)-dien-30-amide]	1600 ± 100	2300 ± 200	12800	115.9 °C (dec.)	1500 ± 200	1600 ± 100	5500 ± 1100	2700 ± 300	–	7000 ± 700	–	–	–	12900 ± 800
CN(C)CCCNC(=O)[C@@]1(C)CC[C@]2(C)CC[C@]3(C)[C@H](C(=O)C=C4[C@@]5(C)C=C(C#N)C(=O)C(C)(C)C5CC[C@]43C)[C@@H]2C1 (stereo partly shown) [compound 7, N-(3′-(Dimethylamino)propyl)-2-cyano-3,12-dioxo-18βH-olean-9(11),1(2)-dien-30-amide]	3300 ± 800	2000 ± 700	7700 ± 1100	–	4900 ± 800	1800 ± 300	5300 ± 700	3700 ± 600	–	5200 ± 1300	4500	–	–	–

— article PMC9145754, “Novel Soloxolone Amides as Potent Anti-Glioblastoma Candidates: Design, Synthesis, In Silico Analysis and Biological Activities In Vitro and In Vivo” (Pharmaceuticals, 2022)
